The test system of one data set is SK-N-MC. Kind of data set: Multi cell line growth assay (CellTiter-Glo, 72 h). In kind it is cell-based, human. To be noted: Brain, ND = no growth inhibition observed. Background: In ATP-based viability assays light output follows the ATP content of the culture.
Another data set has as its system RS4(11). Kind of data set: Multi cell line growth assay (CellTiter-Glo, 72 h). It is filed as cell-based, human. To be noted: ND = no growth inhibition observed.
The conditions of data set [1]: pH 6.8.
Description: (§1) For assessment of drug permeability, we relied on parallel artificial membrane permeability assay (PAMPA) performed at Pion Inc. with the PAMPA Evolution™ instrument (Table S1, ESI ^†).
(§2) methods (ESOL model1 and Ali et al.2) PAMPA: Pe is effective permeability (x10-6 cm/sec)
(§3) measured directly from assay at pH 6.8 and %R is membrane retention.
(§4) as the average of quadruplicates. Und label refers to compounds with extremely low solubility
(§5) for which UV limits were below the detection limits therefore considered undetected.
(§6) Compounds were labelled as high permeability (green), medium permeability (orange) or low
(§7) Artificial Membrane Permeability (PAMPA):
(§8) The PAMPA Evolution™ instrument was used to determine permeability, at Pion Inc. In
(§9) PAMPA, a sandwich is formed such that each composite well is divided into two chambers,
(§10) measured at pH 6.8 in the donor compartment using low-binding, low UV Prisma buffer. The
(§11) drug-free acceptor compartment was filled with acceptor sink buffer containing a scavenger at
(§12) the start of the test. The proprietary scavenger mimics serum proteins and blood circulation,
(§13) thus creating sink conditions. Aqueous solutions of studied compounds are prepared by diluting
(§14) and thoroughly mixing 3 µL of DMSO stock in 600 µL of Prisma HT buffer. Final
(§15) concentration of organic solvent (DMSO) in aqueous buffer is ≤ 0.5% (v/v). The reference
(§16) solution is identical to the donor at time zero, so that any surface adsorption effects from the
(§17) plastic ware is compensated. The PAMPA sandwich was assembled and allowed to incubate
(§18) for ~15 hours. The solutions in the donor compartment were un-stirred within duration of the
(§19) experiment. Thus, the thickness of the aqueous boundary layer expected to be about 1000 µm.
(§20) The sandwich was then separated, and both the donor and receiver compartments were assayed
(§21) for the amount of drug present by comparison with the UV spectrum obtained from reference
Another data set relates to CAOV3. Kind of data set: Multi cell line growth assay (CellTiter-Glo, 72 h). It is filed as cell-based, human. To be noted: ND = no growth inhibition observed.
The nature of data set [2]: Dynamic light scattering, colloidal aggregation. In kind it is physicochemical. As to conditions: measured at 10 µM, 1 µM and 100 nM, 25 °C, read-out: DLS maximum soluble concentration at which no aggregates are observed.
Protocol: In addition, we measured particle sizes by using dynamic light scattering (DLS).
DLS is measured at 10 µM, 1µM and 100 nM. The maximum soluble
concentration – at which no aggregates are observed - is indicated and the colour code indicates
Dynamic Light Scattering:
Dynamic light scattering (Zetasizer Nano S, Malvern, UK) was used to determine compound colloidal aggregation. […] A 10 mM stock solution of
test compounds was prepared in DMSO, following dilution to deionized and filtered water to
obtain an analyte solution of 10 μM (0.1% DMSO). Colloidal aggregation was measured
through sequential dilutions at 10 μM, 1 μM and 0.1 μM.
Another data set deals with Kasumi. Kind of data set: Multi cell line growth assay (CellTiter-Glo, 72 h). As to conditions: Blood, ND = no growth inhibition observed. It is filed as cell-based, human.
For the next data set, the system named is DAUDI. Kind of data set: Multi cell line growth assay (CellTiter-Glo, 72 h). As to conditions: Lymphoid, ND = no growth inhibition observed. In kind it is cell-based, human.
The test system of another data set is Jurkat. The data set can be described thus: Multi cell line growth assay (CellTiter-Glo, 72 h). In kind it is cell-based, human. As to conditions: Blood, ND = no growth inhibition observed.
The target in the next data set is T1, BMX (Homo sapiens, UniProt P51813).
T1 sequence (P51813 1-675): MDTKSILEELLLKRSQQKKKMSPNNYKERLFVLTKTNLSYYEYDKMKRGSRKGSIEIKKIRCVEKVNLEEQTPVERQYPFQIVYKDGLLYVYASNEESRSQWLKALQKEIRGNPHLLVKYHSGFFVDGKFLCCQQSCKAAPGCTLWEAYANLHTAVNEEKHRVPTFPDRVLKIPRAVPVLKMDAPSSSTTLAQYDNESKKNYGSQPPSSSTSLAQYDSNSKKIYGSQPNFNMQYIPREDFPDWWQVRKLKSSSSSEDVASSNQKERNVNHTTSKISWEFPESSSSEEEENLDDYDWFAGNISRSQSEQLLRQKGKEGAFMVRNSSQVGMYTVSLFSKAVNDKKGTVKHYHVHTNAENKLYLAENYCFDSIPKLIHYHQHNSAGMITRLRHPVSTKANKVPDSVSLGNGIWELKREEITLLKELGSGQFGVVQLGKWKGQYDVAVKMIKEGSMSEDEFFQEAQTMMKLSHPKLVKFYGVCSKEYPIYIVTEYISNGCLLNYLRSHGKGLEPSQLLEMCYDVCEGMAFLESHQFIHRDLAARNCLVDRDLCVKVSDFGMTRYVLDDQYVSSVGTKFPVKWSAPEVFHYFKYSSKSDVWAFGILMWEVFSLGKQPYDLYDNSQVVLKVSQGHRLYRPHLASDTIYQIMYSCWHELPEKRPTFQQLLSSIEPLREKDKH
Kind of data set: BMX biochemical activity assay (HTRF, phosphorylation of a biotinylated peptide).

The next data set relates to H1299. Kind of data set: Multi cell line growth assay (CellTiter-Glo, 72 h). In kind it is cell-based, human. To be noted: Bone marrow (so in the source), ND = no growth inhibition observed.
The test system of the next data set is 22 RV1. Kind of data set: Multi cell line growth assay (CellTiter-Glo, 72 h). In kind it is cell-based, human. As to conditions: ND = no growth inhibition observed.
A further data set relates to LNCaP. The data set can be described thus: Multi cell line growth assay (CellTiter-Glo, 72 h). As to conditions: Prostate, ND = no growth inhibition observed within the concentrations tested. In kind it is cell-based, human.
In another data set the test system is U-87MG. Kind of data set: Multi cell line growth assay (CellTiter-Glo, 72 h). It is filed as cell-based. To be noted: Homo sapiens, Brain, ND = no growth inhibition observed.
In another data set the test system is PC3 cells. Kind of data set: PC-3 cell growth assay (CellTiter-Glo, 96 h). In kind it is cell-based. To be noted: Homo sapiens, PC-3, 96 h, read-out: GI50 PC3.
Another data set relates to LNCaP cells. Kind of data set: LNCaP cell growth assay (CellTiter-Glo, 96 h). As to conditions: Homo sapiens, read-out: GI50 LNCaP. In kind it is cell-based.
Another data set has as its system PC3. Kind of data set: Multi cell line growth assay (CellTiter-Glo, 72 h). In kind it is cell-based, human. To be noted: Homo sapiens, PC-3, Prostate, ND = no growth inhibition observed.
Data set [3] addresses T2, wild-type BMX in PC3 cells (Homo sapiens, UniProt P51813).
T2 construct: endogenous in cells; host or cells: PC3 prostate cancer cells (wild-type, untransfected)
The data set can be described thus: BMX degradation assay in PC3 cells (Western blot). In kind it is cell-based. As to conditions: 10 μM; 24 h and 72 h; band intensity normalized to α-Tubulin. The method, then: The cell proliferation depends on BMX kinase activity that was used to monitor the cellular activity of the compounds (IC50). […].  Fig. 5 (a) Intracellular target engagement in HEK293 cells transiently transfected with BMX expressing NanoLuc®-BMX fusion vector with Promega's NanoBRET™ TE Intracellular Kinase Assay. […] Band intensity was measured using ImageJ and normalized with α-Tubulin band intensity. […] Data are mean ± standard deviation obtained from at least three independent measurements (n = 3). See ESI ^† for additional data and analysis. […] | page 12: […]
degradation assay. Protein band intensity normalized with α-Tubulin band intensity and quantified using ImageJ. Data was obtained from at least three independent measurements […]
concentration against PC3 cells, plated on 6-well plates, a day after attachment. DMSO was used as a control vehicle. At 24 h and 72 h of incubation, cells were washed in 1X PBS and lysed in 100 µL RIPA Buffer (in house) supplemented with EDTA-free Protease Inhibitor Cocktail (Merk) and DNase I (Merk). The lysis procedure was performed by re-suspending cells continuously, followed by a incubation of 30 min on ice. BMX antibody (Abcam) and tubulin antibody (Cell signaling Technology) were used in the Western blot. Band intensity […]

Another data set addresses T3, His6-hsBMX (Homo sapiens, UniProt P51813).
T3 construct: Crystallization, data collection, and structure determination of BMX catalytic domain in; made in house; host or cells: Sf-9 insect cells
The data set can be described thus: Surface plasmon resonance (SPR). In kind it is binding. As to conditions: from kinetic constants. On the technique in general: In SPR one partner is held on a chip, and binding of the other changes the refractive index at the surface.

Data set [4] has as its target NanoLuc®-BMX fusion vector in HEK293 cells (Homo sapiens, UniProt P51813). The data set can be described thus: NanoBRET TE intracellular kinase assay. In kind it is cell-based. To be noted: HEK293 transiently transfected with BMX; 1 h; duplicate, mean ± S.D.; read-out: intracellular target engagement IC50.
Protocol: Target Engagement Intracellular Kinase Assay:
In-cell target engagement was performed at the Reaction Biology Corporation (USA) using the NanoBRETTM technology. Very briefly, HEK296 cells, purchased from ATCC, were
with the reference compound Dasatinib, for 1 hour of incubation. Compounds were diluted 10 times with 3-fold dilution, starting at 1 µM. Curve fits were performed only when % NanoBret
determined using the GraphPad Prism 8 (USA).
The target in data set [5] is T4, recombinant human BMX protein (hBMX) (Homo sapiens, UniProt P51813).
T4 construct: Crystallization, data collection, and structure determination of BMX catalytic domain in; made in house; host or cells: Sf-9 insect cells
The data set can be described thus: Differential scanning fluorimetry (DSF). To be noted: 100 μM compound. It is filed as binding.
Protocol: We further characterized the binding interaction between JS24–JS27 and BMX by using differential scanning fluorimetry (DSF) and surface plasmon resonance (SPR). Purified recombinant human BMX protein (hBMX) was first subjected to thermal scanning in the absence and presence of JS24–JS27, and the respective protein melting temperature (Tm) calculated.
Differential Scanning Fluorimetry:
DSF was performed in MicroAmp™ EnduraPlate™ Optical 96 -Well Clear Reaction Plates
with Barcode (Applied Biosystems, Life Technologies, California, USA) using a QuantStudio
7 Flex Real-Time PCR System (Applied Biosystems). Pre-incubation of the protein with the
compound for 2 hours at 4 °C was required prior to DSF experiments. The final reaction mixture
(20 μL of total volume) contained 4 μg of His6-BMX, 4-fold of Protein Thermal Shift™ Dye
(Applied Biosystems) diluted in protein buffer solution, and 100 μM of compound. The
temperatures were obtained by taking the midpoint of each transition.

In the next data set the test system is MDA-MB-231. The data set can be described thus: Multi cell line growth assay (CellTiter-Glo, 72 h). To be noted: Homo sapiens, Breast, ND = no growth inhibition observed. In kind it is cell-based.
The next data set can be described thus: in vitro. To be noted: PAMPA.
In the next data set the test system is DU145. Kind of data set: Multi cell line growth assay (CellTiter-Glo, 72 h). It is filed as cell-based. As to conditions: Homo sapiens, DU-145, Prostate, ND = no growth inhibition observed.
Setting [6] is: Experiment 1 of Fig. S3, control JS9A (in-house BMX-IN-1), read-out: BMX IC50.

≈ marks a conversion by molar mass, not a printed value. Where “and” joins values, the source holds several entries; their conditions need not be identical. Identical values can stand only once. Like-named read-outs stand apart in the source and are kept apart here.

Description for His6-hsBMX: response upon compound injection (t=0s), or upon washing (t=220s), on immobilized His6-
hsBMX surfaces. Compound concentrations injected on already saturated surfaces were not
included in the 1:1 Langmuir fitting model. X-axis: time (s); y-axis: response (arbitrary units).
Inset plots [x-axis: compound concentration (M); y-axis: response (arbitrary units)] show the
steady-state affinity (KDss) fit for the interactions wherein equilibrium was reached.
Surface Plasmon Resonance:
The kinetic and affinity parameters of protein-compound interaction were evaluated by SPR.
Experiments were carried out in a Biacore 4000 instrument (Biacore AB, GE Healthcare Life
Sciences, Uppsala, Sweden) at 25 °C. His6-BMX protein was diluted to 10 µg/mL in sodium
acetate pH 5.5, in the presence of 5 µM staurosporine and immobilized onto CM5 (Series S)
sensor chips, using the standard amine coupling procedure. Prior to immobilization, the
carboxymethylated surface of the chip was activated with 400 mM 1-ethyl-3-(3-
dimethylaminopropyl)-carbodiimide and 100 mM N-hydroxysuccinimide for 10 min. HBS-N
(10 mM HEPES pH7.4, 150mM NaCl) was used as the background buffer. Protein was coupled
to the surface after 2 to 10 min injection times, at a flow rate of 10 µL/min, in order to reach
1500 to 3500 response units (RU). The remaining activated carboxymethylated groups were
blocked with a 7 min injection of 1 M ethanolamine pH 8.5. Compounds were pre-diluted in
DMSO to 50x the desired highest tested concentration and diluted afterwards in running buffer
(20 mM HEPES pH 7.4, 150 mM NaCl, 1 mM DTT, 0.1 mM EGTA, 0.05 % (v/v) TWEEN-
20, 5 mM MgCl2) in order to reach 2% of DMSO concentration. A DMSO solvent correction
(1% - 3%) was performed to account for variations in bulk signal and to achieve high-quality
data. Each compound was injected over immobilized His6-BMX for 220 s (30 µL min-1;
association phase) followed by 600 to 2000 s of buffer flow (dissociation phase) at a maximum
five times in 2-fold dilution series. All sensorgrams were processed by first subtracting the
binding response recorded from the control surface (reference spot), followed by subtracting
the buffer blank injection from the reaction spot. All datasets were fit to a simple 1:1 Langmuir
interaction model with the provided Biacore 4000 Evaluation software, to determine kinetic rate constants (kon, koff) or steady-state affinity (KDss).
Protocol for LNCaP cells: GI50 values are reported in μM and are the mean of three individual experiments performed in triplicate. N.d., non-determined, no growth inhibition observed within the concentrations tested.
Cellular activity Assay: LNCaP and PC-3 Cell Growth Assay
Cells were seeded in white, opaque-bottom 96-well plates at 5000 cells/well (LNCaP) or 2000 cells/well (PC-3) in a total volume of 100 µL of culture media.
fold) in 100 µL media were added to the cells 24 hours later. After 96 hours incubation cellular viability was assessed by CellTiter-Glo® (Promega) according to the manufacturer’s instructions. The values were normalized to vehicle and IC50 was calculated using GraphPad
Description for in vitro: as §1, §2, §3, §4, §5, §6, §7, §8, §9, §10, §11, §12, §13, §14, §15, §16, §17, §18, §19, §20, §21

In general, GI50 refers to the concentration that inhibits growth by half. One may read the IC50 as the midpoint of a concentration-inhibition curve. For `CC=CC(=O)Nc1cc(-n2c(=O)ccc3cnc4ccc(-c5ccc(NS(C)(=O)=O)cc5)cc4c32)ccc1C` [JS10], the GI50 is 11.2 µM in the data set on SK-N-MC; 5.06 µM in the data set on RS4(11) (Lung (so in the source)); 17.3 µM in the data set with CAOV3 (Ovary); 4.37 ± 0.04 µM in the data set with Kasumi; 2570 ± 90 nM with DAUDI; 9.71 ± 1.48 µM with Jurkat. The concentration for 50% growth inhibition (GI50) in the data set with H1299 turned out to be 19.4 µM; in the data set on 22 RV1 (Prostate), 4.86 ± 0.11 µM; in the data set with LNCaP, 9.7 µM. This compound also came in with a PAMPA/%R membrane retention in [1] of 33±4%. In addition, the PAMPA/Pe effective permeability in data set [1] was 28±4 x10-6 cm/sec. In addition, in data set [2] (water), the solubility came to 0.1 µM (≈ 0.0539 µg/mL). Also, the IC50 on BMX (setting [6]) came to 21000 ± 7250 nM. Further, the “BMX potency loss (fold) against control BMX-IN-1” value on BMX (relative to the control of the same set of experiments) turned out to be 58 fold.
What is called Kd is the concentration at which binding is half-saturated. Read a high Kd as weaker binding. The ΔTm is the change in melting temperature against a reference sample. As usually defined, the Papp is a coefficient for how fast a substance crosses the barrier. Read a high Papp as fast passage. Consider `C=CC(=O)Nc1cc(-n2c(=O)ccc3cnc4ccc(-c5ccc(NS(C)(=O)=O)cc5)cc4c32)ccc1C` [BMX-IN-1, reference compound], for which the GI50 worked out at 5.33 ± 0.19 µM with U-87MG; 2.36 µM in the data set on SK-N-MC (Homo sapiens, SK-N-MC); 1.18 ± 0.06 µM with RS4(11) (Homo sapiens, RS4-11, Lung (so in the source)); 7.68 ± 0.13 µM with CAOV3 (Homo sapiens, Caov-3, Ovary); 11.5 ± 2.2 µM in the data set with PC3 cells; 1700 nM with LNCaP cells. For the same compound, the GI50 with PC3 was found to be 11 ± 1.13 µM; with Kasumi (Homo sapiens), 3.13 ± 0.06 µM; in the data set on MDA-MB-231 it was 23.6 ± 0.48 µM; in the data set with DAUDI (Homo sapiens, Daudi) it was 1680 ± 70 nM; with Jurkat (Homo sapiens, Jurkat), 5.99 µM; in the data set with 22 RV1 (Homo sapiens, 22Rv1, Prostate), 2.07 ± 0.06 µM. In addition, the GI50 with DU145 was 17.7 µM; in the data set on LNCaP (Homo sapiens, LNCaP), 1.81 ± 0.05 µM. Further, in data set [1], the PAMPA/%R membrane retention came to 55±8%. Further, the solubility in [2] (deionized and filtered water (0.1% DMSO), kinetic from dmso stock) was not below 10 µM. Further, the “degradation of BMX protein” value in data set [3] is “induce degradation of wild-type BMX in PC3 cells”. On His6-hsBMX, this compound showed a dissociation constant (Kd) of 69 nM. For the same compound, the 50% inhibitory concentration (IC50) in [4] was 495 nM; at BMX (setting [6]), 360 ± 24 nM; at BMX (Experiment 2 of Fig. S3, control commercial BMX-IN-1, read-out: BMX IC50), 55 ± 35 nM; on BMX (Experiment 3 of Fig. S3, control commercial BMX-IN-1, read-out: BMX IC50), 230 ± 34.5 nM; on BMX (Experiment 4 of Fig. S3 = Fig. 1b, duplicate, mean ± S.D., read-out: BMX inhibition IC50) it was 50.2 nM and 50 nM. The ΔTm at 100 µM in data set [5] (versus apo-BMX, read-out: ΔTm) stood at 8.04 ± 0.32 °C. Besides, the “Average Tm of BMX with compound” value in data set [5] (apo-BMX Tm 51.8-52.2 °C) worked out at 60.17±0.32 °C. Further, the Papp in the data set “in vitro” (pH 6.8, PAMPA permeability) stood at 8.9 ×10⁻⁶ cm/s; in the data set “in vitro” (pH 6.8, PAMPA/Pe effective permeability), 8.9 ± 0.8 ×10⁻⁶ cm/s.
